Legend:
Assay type in all cases: in vitro ADME
[1] = molecular target: T1, P4503A4 (Homo sapiens, UniProt P08684); experiment: Metabolism with human recombinant P4503A4; conditions: 0.05 mM compound, 1 mg/mL P4503A4, 2 mM NADPH, 30 min
T1 construct: purchased Cypex, Dundee, Scotland, UK (through Tebu-Bio); host or cells: Escherichia coli (Bactosomes)
Procedure: UT-RLMs (2 mg/mL) and P450-RLMs induced with Dex, 3MC, or PB and recombinant P4502C19 and P4503A4 (1 mg/mL) were assayed for activity toward tested UAs as follows. The proteins were incubated in a buffer containing 0.1 M HEPES (pH 7.4), 2 mM MgCl2 with 0.05 mM substrate in total volume 70 µL. Substrates were added also in buffer HEPES, pH 7.4. Reactions were started by the addition of NADPH (2 mM) and were incubated for specified time at 37 °C. The reactions were stopped by the addition of 8.75 µL of 1 M HCl, followed by centrifugation at 13,400 rpm for 10 min to pellet the denatured protein. The supernatant fractions were used for high-performance liquid chromatography (HPLC) analysis. Control reactions omitting substrate were run with each assay. All incubations were performed in two repetitions.

[2] = molecular target: T2, UGT 2B4 (Homo sapiens, UniProt P06133); experiment: Glucuronidation with recombinant UGT2B4; design: key: −: the lack of UGT activity; +: the significant UGT activity; conditions: 0.05 mM compound, 1 mg/mL UGT, 5 mM UDPGA
T2 construct: purchased Corning, NY, USA (through DIAG-MED, Poland); host or cells: baculovirus-insect cells (Supersomes)
T2 sequence (P06133 24-528): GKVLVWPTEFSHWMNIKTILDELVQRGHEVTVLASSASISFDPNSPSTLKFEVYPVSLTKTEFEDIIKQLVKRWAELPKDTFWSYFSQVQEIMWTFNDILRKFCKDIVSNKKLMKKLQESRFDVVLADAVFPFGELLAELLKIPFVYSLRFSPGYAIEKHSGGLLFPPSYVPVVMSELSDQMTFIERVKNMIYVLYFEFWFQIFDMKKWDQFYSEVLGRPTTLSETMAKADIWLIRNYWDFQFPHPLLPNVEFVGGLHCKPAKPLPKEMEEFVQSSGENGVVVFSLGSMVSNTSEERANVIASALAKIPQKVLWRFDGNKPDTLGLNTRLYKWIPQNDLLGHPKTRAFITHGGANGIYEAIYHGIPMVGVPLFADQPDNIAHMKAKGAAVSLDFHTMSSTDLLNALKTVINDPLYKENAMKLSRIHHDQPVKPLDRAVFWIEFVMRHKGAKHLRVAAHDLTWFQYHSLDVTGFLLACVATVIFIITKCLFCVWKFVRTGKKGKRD
Procedure: (§1) Recombinant UGT isoform protein (1 mg/mL) was assayed for activity toward tested UAs as follows. The proteins were incubated in a buffer containing 0.1 M HEPES (pH 7.4), 8 mM MgCl2 and alamethicin (25 μg/mL) with either 0.05 mM substrate in total volume 70 µL (alamethicin was added to permeabilize the membrane). Substrates were also in buffer HEPES, pH 7.4. Reactions were started by the addition of UDPGA (5 mM) and were incubated for specified time at 37 °C. The reactions were stopped by the addition of 8.75 µL of 1 M HCl, followed by centrifugation at 13400 rpm for 10 min to pellet the denatured protein. The supernatant fractions were used for HPLC analysis. Control reactions omitting substrate were run with each assay. All incubations were performed in two repetitions.

[3] = molecular target: T3, UGT2B7 (Homo sapiens, UniProt P16662); experiment: Glucuronidation with recombinant UGT2B7; design: key: −: the lack of UGT activity; +: the significant UGT activity; conditions: 0.05 mM compound, 1 mg/mL UGT, 5 mM UDPGA
T3 construct: purchased Corning, NY, USA (through DIAG-MED, Poland); host or cells: baculovirus-insect cells (Supersomes)
T3 sequence (P16662 24-529): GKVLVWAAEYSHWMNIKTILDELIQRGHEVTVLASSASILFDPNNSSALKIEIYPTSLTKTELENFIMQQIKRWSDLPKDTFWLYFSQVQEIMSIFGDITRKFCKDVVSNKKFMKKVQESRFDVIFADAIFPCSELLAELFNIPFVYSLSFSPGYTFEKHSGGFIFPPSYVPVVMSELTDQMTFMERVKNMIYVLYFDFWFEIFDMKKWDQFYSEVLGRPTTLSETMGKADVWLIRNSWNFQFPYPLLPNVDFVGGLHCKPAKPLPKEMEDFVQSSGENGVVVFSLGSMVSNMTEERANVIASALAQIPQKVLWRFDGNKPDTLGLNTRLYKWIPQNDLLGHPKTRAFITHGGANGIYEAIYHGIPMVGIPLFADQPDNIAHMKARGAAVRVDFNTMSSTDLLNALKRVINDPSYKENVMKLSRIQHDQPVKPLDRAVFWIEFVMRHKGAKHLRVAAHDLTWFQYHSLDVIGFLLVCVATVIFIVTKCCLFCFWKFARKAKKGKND
Procedure: as §1

[4] = molecular target: T4, UGT 1A10 (Homo sapiens, UniProt Q9HAW8); experiment: Glucuronidation with recombinant UGT1A10; design: key to Glucuronidation potency UGT 1A10: −: the lack of UGT activity; +: the significant UGT activity; conditions: 0.05 mM compound; for Glucuronidation potency UGT 1A10: 1 mg/mL UGT, 5 mM UDPGA
T4 construct: His tag; purchased Corning, NY, USA (through DIAG-MED, Poland); host or cells: baculovirus-insect cells (Supersomes); Results say Sf9 cells
T4 sequence (Q9HAW8 26-530): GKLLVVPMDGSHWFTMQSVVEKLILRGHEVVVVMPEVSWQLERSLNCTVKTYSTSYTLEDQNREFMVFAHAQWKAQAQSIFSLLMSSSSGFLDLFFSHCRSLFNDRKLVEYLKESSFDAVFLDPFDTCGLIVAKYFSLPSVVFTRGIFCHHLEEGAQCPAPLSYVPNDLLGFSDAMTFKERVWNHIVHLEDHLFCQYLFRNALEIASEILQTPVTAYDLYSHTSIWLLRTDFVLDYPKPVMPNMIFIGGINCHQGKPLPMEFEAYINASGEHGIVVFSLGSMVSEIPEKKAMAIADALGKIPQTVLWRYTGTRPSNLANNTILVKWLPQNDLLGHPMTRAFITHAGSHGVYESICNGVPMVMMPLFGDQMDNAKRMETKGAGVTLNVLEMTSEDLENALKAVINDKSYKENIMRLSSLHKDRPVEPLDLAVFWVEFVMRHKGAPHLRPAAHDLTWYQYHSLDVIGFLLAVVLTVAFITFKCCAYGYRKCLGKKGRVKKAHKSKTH
Procedure: as §1

T1 sequence (P08684 whole entry): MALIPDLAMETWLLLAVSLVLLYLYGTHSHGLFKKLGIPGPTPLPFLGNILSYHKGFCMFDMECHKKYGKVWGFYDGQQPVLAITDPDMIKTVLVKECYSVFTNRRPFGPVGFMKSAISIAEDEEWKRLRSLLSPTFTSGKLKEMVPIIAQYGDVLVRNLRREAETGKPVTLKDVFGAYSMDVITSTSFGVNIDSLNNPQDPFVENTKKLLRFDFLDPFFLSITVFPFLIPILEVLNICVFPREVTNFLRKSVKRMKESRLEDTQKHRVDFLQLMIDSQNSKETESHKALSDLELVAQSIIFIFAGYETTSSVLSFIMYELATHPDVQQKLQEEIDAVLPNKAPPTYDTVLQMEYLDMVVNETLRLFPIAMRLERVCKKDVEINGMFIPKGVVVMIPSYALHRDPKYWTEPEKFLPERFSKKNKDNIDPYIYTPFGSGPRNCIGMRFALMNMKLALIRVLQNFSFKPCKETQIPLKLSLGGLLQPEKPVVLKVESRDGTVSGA

## Cc1ccc([N+](=O)[O-])c2c(NCCCN(C)CCCNc3ccc4ncn5c6ccc(O)cc6c(=O)c3c45)c3ccccc3nc12 [C-2045]
[1]
  substrate transformed: 30%
[2]
  Glucuronidation potency UGT 2B4: −
[3]
  Glucuronidation potency UGT 2B7: −
[4]; 1 mg/mL UGT1A10, 5 mM UDPGA, 120 min
  rate of metabolism (glucuronidation) with UGT1A10: 18%
[4]
  Glucuronidation potency UGT 1A10: +

## Cc1ccc([N+](=O)[O-])c2c(NCCCN(C)CCCNc3ccc4ncn5c6ccccc6c(=O)c3c45)c3ccccc3nc12 [C-2053]
[1]
  substrate transformed: approximately 77%
[2]
  Glucuronidation potency UGT 2B4: −
[3]
  Glucuronidation potency UGT 2B7: −
[4]
  Glucuronidation potency UGT 1A10: −

## CN(CCCNc1c2ccccc2nc2cccc([N+](=O)[O-])c12)CCCNc1ccc2ncn3c4ccccc4c(=O)c1c23 [C-2028]
[1]
  substrate transformed: 72%
[2]
  Glucuronidation potency UGT 2B4: −
[3]
  Glucuronidation potency UGT 2B7: −
[4]
  Glucuronidation potency UGT 1A10: −

Source: article PMC8066102, “Metabolic Profiles of New Unsymmetrical Bisacridine Antitumor Agents in Electrochemical and Enzymatic Noncellular Systems and in Tumor Cells” (Pharmaceuticals, 2021)
